# According to paper PMC2716805, “Canine Plasminogen: Spectral Responses to Changes in 6-Aminohexanoate and Temperature” (2007):
# Target: T1, canine plasminogen (DPGN) (Canis lupus, UniProt P80009)
# T1 construct: gene PLG; intact plasminogen purified from dog blood (samples showing conversion to lys-plasminogen or plasmin discarded)
# Assay: titration followed by 4th derivative near-UV absorption spectroscopy (R-values)
# Type: binding
# T1 sequence (P80009 with tags, fused parts or gaps): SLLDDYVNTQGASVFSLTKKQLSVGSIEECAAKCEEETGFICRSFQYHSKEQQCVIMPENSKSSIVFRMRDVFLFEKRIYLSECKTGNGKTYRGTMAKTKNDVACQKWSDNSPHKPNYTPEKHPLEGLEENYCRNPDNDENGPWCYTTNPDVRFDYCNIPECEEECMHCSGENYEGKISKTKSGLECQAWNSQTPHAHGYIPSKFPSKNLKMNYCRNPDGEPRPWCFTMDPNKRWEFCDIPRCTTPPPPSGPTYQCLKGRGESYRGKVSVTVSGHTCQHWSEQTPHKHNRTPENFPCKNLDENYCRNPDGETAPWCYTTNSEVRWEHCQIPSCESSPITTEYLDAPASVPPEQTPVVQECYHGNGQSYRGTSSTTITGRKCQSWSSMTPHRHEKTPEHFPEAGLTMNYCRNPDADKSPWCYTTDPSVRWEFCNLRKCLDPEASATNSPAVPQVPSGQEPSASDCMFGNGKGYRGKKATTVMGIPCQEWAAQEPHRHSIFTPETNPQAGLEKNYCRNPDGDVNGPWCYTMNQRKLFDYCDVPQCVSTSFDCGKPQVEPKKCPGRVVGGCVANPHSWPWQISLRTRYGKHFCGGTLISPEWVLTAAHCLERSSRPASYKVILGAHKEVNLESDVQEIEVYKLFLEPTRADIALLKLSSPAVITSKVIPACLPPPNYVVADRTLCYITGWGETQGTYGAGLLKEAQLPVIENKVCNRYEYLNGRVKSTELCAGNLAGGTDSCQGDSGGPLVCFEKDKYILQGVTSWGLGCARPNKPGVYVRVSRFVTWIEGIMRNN
smiles,measurement,value
"NCCCCCC(=O)O [6-AH, 6-aminohexanoate]",Kd,~1 µM
